According to patent publication EP0281245B1, “Cytochrome P-450 enzymes” (Sankyo Company Limited, priority 1987, dated 1988):
Counter-ions that a name gives are not always drawn. Like-named read-outs stand apart in the source and are kept apart here.

Tests used:
Assay in all cases: Effect of potential inhibitors and metallic ions on rate of formation of pravastatin sodium from sodium ML-236B carboxylate (method ii)
cytochrome P-450sca-1 = type: biochemical, Streptomyces carbophilus; settings: for Residual activity of enzyme P-450sca-1: 5 min; for inhibition of cytochrome (in words): each cytochrome
Method: (§1) The following cocktail of components is employed:
(§2) The components of the Table are mixed, the solution is shaken at 30°C for 5 minutes, and then 10 »l of 6 N NaOH is added and the reaction stopped. The amount of pravastatin sodium formed by the enzyme system is determined with HPLC.
(§3) The effects of potential inhibitors against cytochrome P-450sca-1 P-450sca-2, P-450sca-3 and the effects of metallic ions on the action of the cytochrome P-450 can be assessed quantitatively using the method (ii).

P-450sca-2 = target: T1, P-450sca-2 (Streptomyces carbophilus, UniProt Q59831); type: biochemical; settings: for remaining activity at 2000 µM: read-out: Residual activity of enzyme P-450sca-2
T1 construct: made in house; host or cells: Streptomyces carbophilus SANK 62585 (FERM BP-1145), native producer, not recombinant
T1 sequence (Q59831 1-410): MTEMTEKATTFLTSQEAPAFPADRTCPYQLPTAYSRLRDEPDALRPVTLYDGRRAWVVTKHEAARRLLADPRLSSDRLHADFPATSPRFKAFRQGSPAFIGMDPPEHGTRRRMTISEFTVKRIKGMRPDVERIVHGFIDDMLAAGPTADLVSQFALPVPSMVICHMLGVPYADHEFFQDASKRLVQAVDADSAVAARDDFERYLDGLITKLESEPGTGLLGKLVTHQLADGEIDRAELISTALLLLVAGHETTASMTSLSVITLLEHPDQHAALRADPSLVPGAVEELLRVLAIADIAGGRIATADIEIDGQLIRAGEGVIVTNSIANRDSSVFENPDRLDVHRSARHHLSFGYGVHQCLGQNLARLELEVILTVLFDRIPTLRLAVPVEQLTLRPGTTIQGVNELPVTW
Method: (§4) (ii) Measurement of rate of formation of pravastatin sodium from sodium ML-236B carboxylate
as §1, §2, §3

P-450sca-3 = type: biochemical, Streptomyces carbophilus
Method: as §4, §1, §2, §3

Compound	inhibition of cytochrome (in words) (cytochrome P-450sca-1)	inhibition of cytochrome (in words) (P-450sca-2; each cytochrome)	inhibition of cytochrome (in words) (P-450sca-3; each cytochrome)	Residual activity of enzyme P-450sca-1 (cytochrome P-450sca-1; 1 mM added compound) [%]	Residual activity of enzyme P-450sca-2 (P-450sca-2; 1 mM added compound) [%]	Residual activity of enzyme P-450sca-3 (P-450sca-3; 1 mM added compound) [%]	further results
CCCC(C(=O)OCCN(CC)CC)(c1ccccc1)c1ccccc1 [SKF-525A, 2-diethylaminoethyl-2,2-diphenyl valerate hydrochloride]	inhibited	inhibited	inhibited	–	–	–	Residual activity of enzyme P-450sca-1 (cytochrome P-450sca-1; 2 mM added compound): 25.8%; remaining activity at 2000 µM (P-450sca-2; 2 mM added compound): 22.8%; Residual activity of enzyme P-450sca-3 (P-450sca-3; 2 mM added compound): 24.1%
[C-]#[O+] [CO, carbon monoxide]	inhibited	inhibited	inhibited	–	–	–	Residual activity of enzyme P-450sca-1 (cytochrome P-450sca-1; CO bubbled in for 1 minute): 50.0%; Residual activity of enzyme P-450sca-2 (P-450sca-2; CO bubbled in for 1 minute): 55.0%; Residual activity of enzyme P-450sca-3 (P-450sca-3; CO bubbled in for 1 minute): 60.4%
[Ca+2].[Cl-].[Cl-] [CaCl₂]	–	–	–	100.0	100.0	100.0	–
[Cl][Cu][Cl] [CuCl₂]	inhibited	inhibited	inhibited	0	0	0	–
[Cl][Mn][Cl] [MnCl₂]	inhibited	inhibited	inhibited	20.0	18.7	17.5	–
CN/C(=N/CCSCc1nc[nH]c1C)NC#N [Cimetidine]	inhibited	–	–	–	–	–	Residual activity of enzyme P-450sca-1 (cytochrome P-450sca-1; 2 mM added compound): 58.7%; inhibition of cytochrome (in words) (P-450sca-2): inhibited; remaining activity at 2000 µM (P-450sca-2): 45.7%; inhibition of cytochrome (in words) (P-450sca-3): inhibited; Residual activity of enzyme P-450sca-3 (P-450sca-3; 2000 µM): 43.8%
[Cl-].[Cl-].[Co+2] [CoCl₂]	inhibited	inhibited	inhibited	65.0	67.5	60.1	–
